Results published in patent publication US20210230159A1, “4H-PYRIDO[1,2-A]PYRIMIDIN-4-ONE COMPOUNDS” (Prana Biotechnology Limited, priority 2014, published 2021).

Experiment: Hydrogen peroxide (H2O2) inhibition assay (fluorescence, DCF/horseradish peroxidase)
Assay type: biochemical
Details: for IC50: HCl salt tested where HCl salt MW is given; for Fe-ASC % (cf. 0.4 uM Fe/Asc; cf. CQ, CQ = 100%) / Cu % ASC (cf. CQ = 100%) / Zn % ASC (cf. CQ = 100%): ascorbic acid as reducing substrate; for Fe-ASC % (cf. 0.4 uM Fe/Asc; cf. CQ, CQ = 100%) / Fe-DA % (cf. 0.4 uM Fe/DA; cf. CQ, CQ = 100%): test compound 0.4 μM, lower values = greater inhibition of H2O2; for Fe-DA % (cf. 0.4 uM Fe/DA; cf. CQ, CQ = 100%): dopamine as reducing substrate
Description: Assay 1. Hydrogen Peroxide Assay
H2O2 is a strong oxidizer and a highly reactive oxygen species that is known to be toxic to surrounding proteins and organelles, inhibiting their function. […] […] H2O2 generated by the system is assessed by measuring the specific fluorescence profile at the excitation and emission wavelengths of 485 and 530 nm respectively, in the presence of test compound. Test compounds were dissolved in DMSO and tested at concentrations of 0.4 μM. Test compounds are ranked according to their capacity to inhibit H2O2 generated by the system where lower values reflect greater ability to inhibit H2O2 production.

Row | SMILES | IC50 [nM] | Fe-ASC % (cf. 0.4 uM Fe/Asc; cf. CQ, CQ = 100%) [% ASC] | Fe-DA % (cf. 0.4 uM Fe/DA; cf. CQ, CQ = 100%) [%] | Cu % ASC (cf. CQ = 100%) | Zn % ASC (cf. CQ = 100%)
1 | CCCCCCCNC(=O)C1=CNC2C(O)=CC=CN2C1=O (stereo not shown) [Compound 1462] | 460 | 72 | 54 | – | –
2 | O=c1cc(CNCc2ccc(OC(F)(F)F)cc2)nc2c(O)cccn12 [Compound 1464] | 470 | 135 | 47 | – | –
3 | Cc1ccc(O)c2nc(CN(C)C)cc(=O)n12 [Compound 1466] | 340 | >234 | 47 | – | –
4 | Cc1ccc(O)c2nc(CNCc3ccc(F)cc3)cc(=O)n12 [Compound 1467] | 440 | 74 | 42 | – | –
5 | Cc1ccc(O)c2nc(CNC3CCCCC3)cc(=O)n12 [Compound 1468] | 210 | 169 | 39 | – | –
6 | CCCNCc1cc(=O)n2c(C)ccc(O)c2n1 [Compound 1470] | 350 | >234 | 38 | – | –
7 | Cc1ccc(O)c2nc(CN3CCCCC3)cc(=O)n12 [Compound 1471] | 300 | 125 | 62 | – | –
8 | CCN(CC)Cc1cc(=O)n2c(C)ccc(O)c2n1 [Compound 1490] | 400 | 178 | 55 | – | –
9 | C#CCN(C)Cc1cc(=O)n2c(C)ccc(O)c2n1 [Compound 1491] | 300 | >222 | 48 | – | –
10 | Cc1ccc(O)c2nc(CN(C)Cc3ccc(F)cc3)cc(=O)n12 [Compound 1500] | 360 | 171 | 42 | – | –
11 | Cc1ccc(O)c2nc(CNCC3CCCCC3)cc(=O)n12 [Compound 1503] | 230 | 204 | 42 | – | –
12 | CC1CCN(Cc2cc(=O)n3cccc(O)c3n2)CC1 [Compound 1506] | > 10000 | 161 | 48 | – | –
13 | Cc1ccc(O)c2nc(CN3CCC(C)CC3)cc(=O)n12 [Compound 1508] | 170 | 148 | 32 | – | –
14 | O=c1cc(CN2CCN(Cc3ccccc3F)CC2)nc2c(O)cccn12 [Compound 1515] | 1000 | 103 | 54 | – | –
15 | CN(Cc1cc(=O)n2cccc(O)c2n1)C1CCCCC1 [Compound 1521] | > 10000 | 123 | 50 | – | –
16 | Cc1ccc(O)c2nc(CN3CCN(Cc4ccccc4F)CC3)cc(=O)n12 [Compound 1522-] | 440 | 156 | 47 | – | –
17 | Cc1ccc(O)c2nc(CN(C)C3CCCCC3)cc(=O)n12 [Compound 1523] | 700 | 135 | 49 | – | –
18 | Cc1ccc(O)c2nc(CN(C)Cc3cccc(F)c3)cc(=O)n12 [Compound 1525] | 320 | 105 | 46 | – | –
19 | Cc1ccc(O)c2nc(CN(C)Cc3ccccc3F)cc(=O)n12 [Compound 1527] | 330 | 133 | 64 | – | –
20 | Cc1cccc(NCc2cc(=O)n3c(C)ccc(O)c3n2)n1 [Compound 1531] | 1480 | – | – | – | –
21 | O=C(c1cnc2c(O)cccn2c1=O)N1CCCC1 [Compound 1532] | 900 | – | – | – | –
22 | O=C(c1cnc2c(O)cccn2c1=O)N1CCCCC1 [Compound 1533] | 1190 | – | – | – | –

Further lines, results first:

Row | IC50 [nM] | Fe-ASC % (cf. 0.4 uM Fe/Asc; cf. CQ, CQ = 100%) [% ASC] | Fe-DA % (cf. 0.4 uM Fe/DA; cf. CQ, CQ = 100%) [%] | Cu % ASC (cf. CQ = 100%) | Zn % ASC (cf. CQ = 100%) | SMILES
23 | 590 | 158 | 73 | – | – | COc1ccc(CNCc2cc(=O)n3cccc(O)c3n2)cc1OC [Compound 1463]
24 | 500 | 63 | 43 | – | – | Cc1ccc(O)c2nc(CNCc3ccc(Cl)cc3)cc(=O)n12 [Compound 1469]
25 | 230 | 122 | 46 | – | – | CN(CCc1ccccn1)Cc1cc(=O)n2cccc(O)c2n1 [Compound 1476]
26 | 3120 | 198 | 75 | – | – | Cc1ccc(CNCc2cc(=O)n3cccc(O)c3n2)cc1 [Compound 1478]
27 | 460 | 147 | 42 | – | – | CN(Cc1ccc(F)cc1)Cc1cc(=O)n2cccc(O)c2n1 [Compound 1479]
28 | 530 | 159 | 57 | – | – | CCCCN(C)Cc1cc(=O)n2cccc(O)c2n1 [Compound 1485]
29 | 310 | 160 | 33 | – | – | Cc1ccc(O)c2nc(CNCCc3ccccn3)cc(=O)n12 [Compound 1504]
30 | 300 | 102 | 52 | – | – | CN(Cc1cc(=O)n2cccc(O)c2n1)Cc1ccccc1F [Compound 1516]
31 | 350 | 105 | 55 | – | – | CN(Cc1cccc(F)c1)Cc1cc(=O)n2cccc(O)c2n1 [Compound 1517]
32 | 580 | 84 | 49 | – | – | CN(Cc1cccc(Cl)c1)Cc1cc(=O)n2cccc(O)c2n1 [Compound 1518]
33 | 350 | 100 | 47 | – | – | Cc1ccc(O)c2nc(CN(C)Cc3cccc(Cl)c3)cc(=O)n12 [Compound 1519]
34 | – | – | – | Cu 204% ASC | Zn 130% ASC | CCCc1cnc2c(O)c(-c3cccnc3)c(Cl)cn2c1=O [Compound 1629, 7-Chloro-9-hydroxy-3-propyl-8-(pyridin-3-yl)-4H-pyrido[1,2-a]pyrimidine-4-one]
35 | – | – | – | Cu 213% ASC | Zn 129% ASC | CCCc1cnc2c(O)c(-c3c(C)noc3C)c(Cl)cn2c1=O [Compound 1630]
36 | – | – | – | Cu 248% ASC | Zn 101% ASC | CCCc1cnc2c(O)c(CN(C)C)ccn2c1=O [Compound 1631]
37 | – | – | – | Cu 228% ASC | Zn 106% ASC | CC(C)c1cnc2c(O)c(CN(C)C)ccn2c1=O [Compound 1632]
38 | – | – | – | Cu 17% ASC | Zn 140% ASC | CC(C)c1cnc2c(O)c(-c3cnn(C)c3)ccn2c1=O [Compound 1633]
